How the values were obtained:
Assay type in all cases: cell-based
[1] = biological target: T1, GALR3 single mutant F^265P (Homo sapiens, UniProt O60755); assay: SRE-luc luciferase assay, GALR3 F265P; settings: GALR3 F^265P; SRE-luc in HEK293 Gqi cells, ligand 6 h; mean ± S.E.
T1 construct: expressed in transfected cells; host or cells: HEK293 cells stably expressing Gqi
Source text: (§1) For domain swapping between GALR2 and GALR3, individual cDNA fragments of interest were amplified by polymerase chain reaction (PCR) with Pfu polymerase (ELPIS Biotech, Daejeon, Korea) and two specific primers, one corresponding to the 5' or 3' end of the GALR2 or GALR3 cDNA and the other to the region of overlap between the two receptors. The two resulting fragments, one from GALR2 and the other from GALR3, were subjected to a second round of PCR to generate the chimeric cDNAs. To construct single, double-, triple-, pentuple-, hextuple-, and septuple-mutant receptors, amino acids of GALR3 were substituted for the amino acids at the corresponding positions in GALR2 using PCR-based site-directed mutagenesis. All of the chimeric constructs were cloned into the pcDNA3 expression vector at HindⅢ and XbaⅠ sites. The DNA sequences of the chimeras were verified by automatic sequencing. […] The luciferase activity in 50 μl cell extract was determined using a luciferase assay system according to the standard protocol for the Synergy 2 Multi-Mode Microplate Reader (BioTek, Winooski, VT, USA). […] The concentrations of agonists that induced half-maximal stimulation (EC50) were calculated using the GraphPad PRISM5 software (GraphPad software, Inc., San Diego, CA). […]

[2] = biological target: T2, GALR3 single mutant P^267R (Homo sapiens, UniProt O60755, P267R); assay: SRE-luc luciferase assay, GALR3 P267R; settings: GALR3 P^267R; SRE-luc in HEK293 Gqi cells, ligand 6 h; mean ± S.E.; SEM
T2 construct: expressed in transfected cells; host or cells: HEK293 cells stably expressing Gqi
T2 sequence (O60755 whole entry P267R): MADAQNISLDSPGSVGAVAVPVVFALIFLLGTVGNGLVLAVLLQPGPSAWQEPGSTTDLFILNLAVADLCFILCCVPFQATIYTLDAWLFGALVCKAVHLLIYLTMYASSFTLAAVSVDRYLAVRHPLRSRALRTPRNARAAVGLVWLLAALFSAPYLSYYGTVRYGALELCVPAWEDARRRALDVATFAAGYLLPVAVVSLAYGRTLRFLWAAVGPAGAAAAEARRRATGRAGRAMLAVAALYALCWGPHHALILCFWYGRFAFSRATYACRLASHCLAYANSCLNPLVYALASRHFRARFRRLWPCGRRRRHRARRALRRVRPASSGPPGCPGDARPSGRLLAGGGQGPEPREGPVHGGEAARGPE
Source text: as §1

[3] = biological target: T3, GALR3 single mutant C^272L (Homo sapiens, UniProt O60755, C272L); assay: SRE-luc luciferase assay, GALR3 C272L; settings: GALR3 C^272L; SRE-luc in HEK293 Gqi cells, ligand 6 h; mean ± S.E.; SEM
T3 construct: expressed in transfected cells; host or cells: HEK293 cells stably expressing Gqi
T3 sequence (O60755 whole entry C272L): as the sequence (O60755 whole entry P267R) above, with R267P, C272L counted along it
Source text: as §1

[4] = biological target: T4, GALR3 (Homo sapiens, UniProt O60755); assay: cAMP assay (inhibition of forskolin-induced cAMP), WT GALR3; parameters: expressed in transfected cells; host or cells: HEK293 cells stably expressing pGlosensor-22F cAMP plasmid; settings: Glosensor-22F cAMP HEK293 cells, agonist 10 min then forskolin 10 μM, mean ± SE, SEM
T4 sequence (O60755 1-368): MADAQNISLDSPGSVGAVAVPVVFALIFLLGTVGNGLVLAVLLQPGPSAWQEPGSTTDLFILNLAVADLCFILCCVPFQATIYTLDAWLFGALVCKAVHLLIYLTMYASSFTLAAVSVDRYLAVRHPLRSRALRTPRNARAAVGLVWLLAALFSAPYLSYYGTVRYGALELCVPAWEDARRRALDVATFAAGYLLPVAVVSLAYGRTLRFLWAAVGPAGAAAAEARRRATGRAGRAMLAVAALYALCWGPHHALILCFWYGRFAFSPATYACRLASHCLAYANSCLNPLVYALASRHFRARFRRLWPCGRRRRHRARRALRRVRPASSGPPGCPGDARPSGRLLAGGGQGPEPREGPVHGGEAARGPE
Method: SPX-induced or Qu-SPX-induced cyclic adenosine monophosphate (cAMP) mobilization was measured in HEK293 cells stably expressing the pGlosensor^TM-22F cAMP plasmid (Promega Corp., Madison, WI, USA). The Glosensor-22F cAMP HEK293 cells were seeded on 96-well plates at a density of 2.0 × 10^4 cells/well 24 h before transfection. A mixture including 100 ng expression plasmid and lipofectamine 2000 reagent in diluted Opti-MEM (Gibco) was incubated at room temperature for 20 min. The mixtures were added into each well according to the manufacturer's instructions (Invitrogen, CA, USA). After 48 h, Glosensor cAMP substrates were added to the transfected cells in CO2-independent media. After 2 h, the cells were incubated with a range of agonist concentrations or vehicle for 10 min and then exposed to foskolin (10 μM). Luminescence was measured for up to 30 min using a Microplate Reader (BioTek, Winooski, VT, USA).
Data analysis was performed by non-linear regression with a sigmoidal dose-response curve. The concentrations of agonists that induced half-maximal stimulation (EC50) were calculated using the GraphPad PRISM5 software (GraphPad software, Inc., San Diego, CA). All data are presented as the mean ± standard error (SE) of at least three independent experiments. […]

T1 sequence (O60755 whole entry F265L): as the sequence (O60755 whole entry P267R) above, with F265L, R267P counted along it

EC50 [1]: > 1000 nM
EC50 [2]: 115 ± 48.7 nM
EC50 [3]: 28.8 ± 6.96 nM
EC50 [4]: 117 ± 51.4 nM
Structure (SMILES): CSCC[C@H](NC(=O)[C@H](C)NC(=O)[C@H](CCC(N)=O)NC(=O)[C@@H]1CCCN1C(=O)[C@@H](NC(=O)[C@H](Cc1c[nH]c2ccccc12)NC(=O)[C@@H](N)CC(N)=O)[C@@H](C)O)C(=O)N[C@@H](CC(C)C)C(=O)N[C@@H](Cc1ccc(O)cc1)C(=O)N[C@@H](CC(C)C)C(=O)N[C@@H](CCCCN)C(=O)NCC(=O)N[C@@H](C)C(=O)N[C@@H](CCC(N)=O)C(N)=O [SPX, reference compound]

Source: PMC7108740, “Exploring the molecular structures that confer ligand selectivity for galanin type II and III receptors” (PLoS ONE, 2020)
